Patent publication US20260151398A1, “COMPOUNDS FOR REDUCING CHOLESTEROL AND TREATING LIVER AND KIDNEY DISEASE” (McMaster University, priority 2021, published 2026)
“Also recorded” adds a separate entry of the source.

Assays:
total secreted protein = test: Coomassie stain of medium for total secreted protein; assay type: cell-based; conditions: Coomassie stain of medium of CF-treated cells
Method: Cultured immortalized hepatocytes known to express and secrete PCSK9 (Lebeau, P., et al., 2017), including HuH7 and HepG2 cells, as well as primary mouse- and human-hepatocytes (PMH and PHH, respectively), were treated with CF for 24 h and assessed for PCSK9 expression via immunoblots and real-time PCR (FIG. 1 A to D). […] Given that sterol deprivation represents another well-established promoter of SREBP2 activation (Lebeau, P., et al., 2017), cells were also treated with CF in the presence and absence of U18666A (U18) that depletes intracellular sterols. […] Next, HepG2 cells were treated with an increasing dose of CF.

cytosolic Ca^2+ levels = test: Cytosolic Ca2+ in hepatocytes (Fura-2-AM); assay type: cell-based, human; conditions: immortalized HuH7 hepatocytes, listed as CF
Method: Intracellular Ca^2+ in Huh7 and HepG2 cells was measured using a high-affinity Ca^2+ indicator, Fura-2-AM (Thermofisher Scientific). ER Ca^2+ levels were assessed using the low-affinity Ca^2+ indicator, Mag-Fluo-4, and via transfection of cells with D1ER. The D1ER plasmid encodes an ER-resident calcium binding protein linked to a fluorescent protein and increases in fluorescence intensity upon Ca^2+ binding (7). […] Cells were then washed and incubated with Fura-2-AM (2 μM) or Mag-Fluo-4 (2 μM) for 45 minutes at 37° C. in HBSS containing 20 mM HEPES and 2% pluronic acid v/v (Thermofisher Scientific).
To test this hypothesis, cytosolic Ca^2+ levels in CF-treated cells were first examined using the high-affinity fluorescent Ca^2+ indicator, Fura-2-AM. […] The fluorescence intensity of cells treated with CF and control agents, TG and CDN, was assessed using a fluorescent spectrophotometer and visualized using a fluorescent microscope (FIG. 6 A). […] ER Ca^2+ content was also assessed indirectly with the high affinity Ca^2+ dye, fura-2-AM (FIG. 6 B).

C57BL/6J mice = test: Mouse studies: circulating PCSK9, triglycerides, ApoB and hepatic markers; assay type: in vivo
Method: Liver tissues were fixed in formaldehyde and subsequently embedded in paraffin for sectioning. […] Slides were then exposed to biotin-conjugated secondary antibodies for 45 minutes and then streptavidin peroxidase for 10 minutes. Staining was visualized using the Nova Red HRP Substrate (Vector Laboratories).
Mouse PCSK9 was measured using the Quantikinine® ELISA kit (#MCP900, R&D Systems) and human PCSK9 using the PCSK9 Quantikinine® ELISA kit (#DCP900, R&D Systems). Serum ApoB levels were also quantified using ELISAs (#DAPB00, R&D Systems). Serum samples were diluted as per manufacturer's instructions.
(§1) All animal studies were carried out in 8 h-fasted male wild-type, Pcsk9^−/− or Ampkβ1^−/− mice on the C57BL/6J background. CF (25-100 mg/kg-8 h) and CDN (50 mg/kg) treatments were administered via intraperitoneal injection unless specified otherwise. Primary mouse hepatocytes were isolated using a two-step process with EGTA ([…] in HEPES buffer, Sigma Aldrich) and collagenase (0.05% in HEPES buffer, Sigma Aldrich) in 12-week-old male mice on the C57BL/6J background. Cells were then washed, centrifuged, and plated following isolation in cell strainers. Hepatosure® 100-donor pooled primary human hepatocytes were purchased from Xenotech. Primary hepatocytes were regularly grown in William's E medium (Gibco, Thermo Fisher Scientific) containing 10% fetal bovine serum, 100 IU/ml penicillin, and 100 µg/ml streptomycin.
Next, the effect of CF on PCSK9 expression/secretion and ER stress marker expression was assessed in mice. […] Immunohistochemical staining intensities were quantified using ImageJ Software (FIG. 9 E).

LDLR = LDLR / CD36 expression in cultured hepatocytes; assay type: cell-based, human
Excerpt: Cells were washed in phosphate-buffered saline (PBS), lysed in 4× SDS-PAGE lysis buffer and separated on 7-10% polyacrylamide gels in denaturing conditions. […] Membranes were then exposed to horse radish peroxidase conjugated secondary antibodies and visualized using EZ-ECL chemiluminescent reagent (Froggabio). Band intensities were quantified using ImageJ software ([…]) against membranes reprobed for housekeeping proteins.
Slides were then mounted with permafluor and visualized using the EVOS FL colour imaging system at either 20 or 40× magnification.
RNA purification/isolation was performed using RNeasy mini kits (Qiagen) and normalized to 2 μg RNA using a NanoDrop® spectrophotometer. Samples were then reverse transcribed into cDNA using Superscript Vilo cDNA Synthesis kit (Thermofisher Scientific). Real-time PCR was executed with Fast SYBR Green (Thermo Fisher Scientific) using the ΔΔct method on the ViiA7 real-time PCR platform (Thermofisher Scientific).
The uptake and accumulation of DiI-LDL was then quantified using a fluorescent spectrophotometer (Molecular Devices). […] Live-cell staining of the LDLR was also performed in HepG2 cells exposed to DiI-LDL (FIG. 11 D).

[1] = test system: Pcsk9+/+ and Pcsk9−/− mice; conditions: CF 8 h
Method: as §1

HepG2 hepatocytes = test: LDH cytotoxicity assay in HepG2 hepatocytes; assay type: cell-based, human; conditions: cultured HepG2 hepatocytes
Method: Secreted PCSK9 levels were assessed using ELISAs and mRNA transcript via real-time PCR. […] Secreted PCSK9, as well as PCSK9 mRNA and SREBP2 mRNA were assessed in these cells. (E) The cytotoxicity of these agents was examined using an LDH assay. […] (G) The uptake of DiI-LDL was also quantified in these cells using a spectrophotometer. Values are presented as the mean and error bars as SD. *, p<0.05 vs. vehicle; NS, non-significant.

[2] = 18-week-old C57BL/6J mice, CF 30 mg/kg every 24 hours for 14 days

Structure (SMILES)	global protein secretion (total secreted protein)	cytosolic Ca^2+ levels (cytosolic Ca^2+ levels)	serum Apolipoprotein B (ApoB) (C57BL/6J mice; [2])	serum PCSK9 after daily dosing (C57BL/6J mice; [2])	circulating PCSK9 levels after oral gavage (C57BL/6J mice; mice, CF 20 mg/kg oral gavage, listed as CF)	circulating PCSK9 levels (C57BL/6J mice; mice, CF 50 mg/kg IP, 8 h)	circulating triglyceride levels (C57BL/6J mice; mice, CF 50 mg/kg IP, 8 h)	time required to significantly reduce plasma PCSK9 (C57BL/6J mice; mice, time-course) [h]	hepatic expression of UPR markers / chaperones (C57BL/6J mice; mouse liver, CF 50 mg/kg, 8 h, listed as CF)	LDLR mRNA transcript levels (LDLR; HuH7 and HepG2)	expression of PCSK9-regulated receptors (LDLR, CD36) (LDLR; cultured hepatocytes, CF 200 μM, immunoblots)	hepatic and serum DiI fluorescence in Pcsk9−/− mice [1]	cytotoxicity (LDH assay) (HepG2 hepatocytes)	hepatic LDLR expression (CDN) (C57BL/6J mice; mice, 50 mg/kg, IP, 8 h)
Cn1c(=O)c2c(ncn2C)n(C)c1=O [caffeine, 1,3,7-Trimethylxanthine]	not affecting global protein secretion	significantly increased cytosolic Ca^2+ levels; also recorded: increases cytosolic Ca^2+ levels	reduction	reduction	reduced circulating PCSK9 levels; also recorded: reduces plasma PCSK9 levels	significant reduction	significant reduction	4	reduced the expression of UPR markers; also recorded: reduces chaperone expression	reduced mRNA transcript levels of the LDLR	increased the expression of PCSK9-regulated receptors	failed to affect these parameters	did not exhibit cytotoxic properties	
Cc1ccc2cccc(NC(=O)c3ccc(OC(C)C)cc3)c2n1 [CDN]														increased hepatic LDLR expression
